# Target: T1, Recombinant human GAPDH (Homo sapiens, UniProt P04406)
# T1 construct: 6His; made in house; host or cells: E. coli BL21
# Assay: Labeling of recombinant GAPDH (in-gel fluorescence, LC-MS)
# Type: biochemical
# Conditions: biotin-thiosulfonate modified tryptic peptide
# Procedure: FIG. 14. Profiling fluorescein-SO2H reactivity and selectivity on S-nitrosylated GAPDH. Recombinant human GAPDH was resuspended in 6 M urea/PBS, treated with 50 mM iodoacetamide for 30 minutes, and mixed with dimedone, ascorbate, peroxide or NO donor (5 minutes). Fluorescein-SO2H (500 μM) was then added to the GAPDH sample for 45 minutes. S-nitrosylated human GAPDH labeling increases upon incubation with the NO donor MAHMA-NONOate, and decreases following treatment with ascorbate. […] Fluorescein-SO2H labeling is unaffected by pre-incubation with peroxide or dimedone.
# FIG. 15. Biotin-SO2H reacts with human GAPDH and forms a thiosulfonate. Recombinant human GADPH was labeled with biotin-SO2H for site-specific analysis of S-nitrosylation by high-resolution mass spectrometry.
# Given the efficient and selective conjugation of sulfinic acids and nitrosothiols, recombinant human GAPDH were next purified for targeted analysis of S-sulfinylation with biotin-SO2H. […] Biotin-SO2H-labeled GAPDH protein was digested with trypsin and analyzed by high-resolution mass spectrometry, identifying a biotin-thiosulfonate modified peptide encompassing the GAPDH catalytic cysteine (FIG. 15). […] These studies confirm direct detection of native of S-sulfinylation by sulfinic acid probes for mass spectrometry analysis.
# Purified human GAPDH was diluted to 0.2 mg/mL in phosphate buffered saline (pH 7.3), and treated with 20 mM iodoacetamide for 30 minutes. Next, the sample was treated with 100 μM biotin-SO2H. Purified human DJ-1 was diluted to 0.2 mg/mL in PBS, and incubated with 20 mM iodoacetamide to alkylated free thiols. Next, the sample was treated with 2 mM hydrogen peroxide for 20 minutes to promote Cys106 sulfinic acid formation. […] Eluted peptides were analyzed using a Waters Synapt G2-S HDMS time-of-flight mass spectrometer in positive mode. […] MS data was searched using Waters Protein Lynx Global Server v3.0 using the exact mass calculated for the cysteine thiosulfonate modification.
# T1 sequence (P04406 whole entry): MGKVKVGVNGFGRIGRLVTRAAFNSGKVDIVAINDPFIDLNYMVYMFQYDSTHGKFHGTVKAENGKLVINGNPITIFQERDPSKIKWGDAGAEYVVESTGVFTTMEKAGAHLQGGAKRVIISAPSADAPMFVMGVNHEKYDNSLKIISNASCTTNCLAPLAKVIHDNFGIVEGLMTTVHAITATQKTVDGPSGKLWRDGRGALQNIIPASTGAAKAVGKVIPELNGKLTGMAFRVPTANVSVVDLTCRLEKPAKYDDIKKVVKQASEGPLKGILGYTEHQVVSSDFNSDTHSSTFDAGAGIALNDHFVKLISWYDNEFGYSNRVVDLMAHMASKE
smiles,measurement,value
"O=C(CCCC[C@@H]1SC[C@@H]2NC(=O)N[C@@H]21)NCCS(=O)O [biotin-SO2H, 2-(5-((3aS,4S,6aR)-2-oxohexahydro-1H-thieno[3,4-d]imidazol-4-yl)pentanamido)ethanesulfinic Acid]",modified cysteine of GAPDH identified by MS/MS,Cys156

# Source: US10408843B2, “Compositions and methods for detecting S-nitrosylation and S-sulfinylation” (The Regents of the University of Michigan, priority 2013, dated 2019)
